In the Kinase Knowledgebase extract (Sharma et al. 2016):

What follows are compounds tested against EGFR (UniProt P00533).
Chain of EGFR (P00533 whole entry, looked up): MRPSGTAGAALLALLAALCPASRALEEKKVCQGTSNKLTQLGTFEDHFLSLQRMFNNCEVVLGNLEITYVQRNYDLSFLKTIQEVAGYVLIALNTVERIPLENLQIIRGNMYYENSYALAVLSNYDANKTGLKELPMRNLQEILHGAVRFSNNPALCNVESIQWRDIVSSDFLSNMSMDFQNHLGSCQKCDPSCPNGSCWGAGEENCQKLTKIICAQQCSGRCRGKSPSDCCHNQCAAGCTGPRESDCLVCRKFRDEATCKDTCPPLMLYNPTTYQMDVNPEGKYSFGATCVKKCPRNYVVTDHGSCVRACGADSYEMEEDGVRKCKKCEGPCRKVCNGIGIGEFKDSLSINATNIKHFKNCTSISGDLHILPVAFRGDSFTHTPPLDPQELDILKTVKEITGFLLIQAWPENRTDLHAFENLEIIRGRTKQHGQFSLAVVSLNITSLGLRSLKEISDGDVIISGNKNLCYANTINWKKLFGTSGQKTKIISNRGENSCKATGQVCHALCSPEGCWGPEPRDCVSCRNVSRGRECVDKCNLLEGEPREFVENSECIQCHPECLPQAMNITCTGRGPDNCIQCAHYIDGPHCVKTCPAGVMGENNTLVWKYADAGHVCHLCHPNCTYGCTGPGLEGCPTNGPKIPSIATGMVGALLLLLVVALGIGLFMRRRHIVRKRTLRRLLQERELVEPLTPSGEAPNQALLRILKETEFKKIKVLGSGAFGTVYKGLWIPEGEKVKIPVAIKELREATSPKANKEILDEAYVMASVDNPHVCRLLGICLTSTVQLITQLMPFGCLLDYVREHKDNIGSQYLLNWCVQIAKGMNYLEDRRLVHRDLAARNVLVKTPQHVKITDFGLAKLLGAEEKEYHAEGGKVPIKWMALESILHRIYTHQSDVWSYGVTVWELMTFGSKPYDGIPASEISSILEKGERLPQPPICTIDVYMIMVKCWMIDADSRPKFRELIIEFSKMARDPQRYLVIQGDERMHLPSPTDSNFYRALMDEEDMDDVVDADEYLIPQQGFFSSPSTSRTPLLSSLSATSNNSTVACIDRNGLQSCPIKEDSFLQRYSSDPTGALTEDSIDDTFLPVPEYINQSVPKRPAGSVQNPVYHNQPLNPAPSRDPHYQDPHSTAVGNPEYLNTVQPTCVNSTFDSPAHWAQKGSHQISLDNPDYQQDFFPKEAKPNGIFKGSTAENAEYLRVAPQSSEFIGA

IC50, 0.001 to 5 µM:
CCc1c(NC(=O)OC[C@H]2C[C@H](O)CCN2)cn2ncnc(Nc3ccc4c(cnn4Cc4ccccc4)c3)c12
CCc1c(NC(=O)OC[C@@H]2COCCN2)cn2ncnc(Nc3ccc4c(cnn4Cc4ncco4)c3)c12
CCc1c(NC(=O)OC[C@@H]2COCCN2)cn2ncnc(Nc3ccc4c(cnn4Cc4cccs4)c3)c12
Cc1c(NC(=O)OC[C@@H]2COCCN2)cn2ncnc(Nc3ccc4c(cnn4Cc4cccc(F)c4)c3)c12
CCc1c(NC(=O)OC[C@@H]2CNCCO2)cn2ncnc(Nc3ccc4c(cnn4Cc4ccccc4)c3)c12
Cc1c(NC(=O)OCC2COCCN2)cn2ncnc(Nc3ccc4c(cnn4Cc4cccc(F)c4)c3)c12 (stereo not given)
Cc1c(NC(=O)O[C@@H]2CCN[C@@H](CO)C2)cn2ncnc(Nc3ccc4c(cnn4Cc4cccc(F)c4)c3)c12
Cc1c(NC(=O)OC[C@H]2COCCN2)cn2ncnc(Nc3ccc4c(cnn4Cc4cccc(F)c4)c3)c12
Cc1c(NC(=O)OC[C@@H]2COCCN2C(=O)OC(C)(C)C)cn2ncnc(Nc3ccc4c(cnn4Cc4cccc(F)c4)c3)c12
CCc1c(NC(=O)O[C@@H]2CCN[C@@H](CO)C2)cn2ncnc(Nc3ccc4c(cnn4Cc4ccccc4)c3)c12
Cc1c(NC(=O)O[C@H]2CCN[C@H](CO)C2)cn2ncnc(Nc3ccc4c(cnn4Cc4cccc(F)c4)c3)c12
Cc1c(NC(=O)O[C@@H]2CCCNC2)cn2ncnc(Nc3ccc4c(cnn4Cc4cccc(F)c4)c3)c12
CCc1c(NC(=O)O[C@H]2CC[C@@](C)(N)CC2)cn2ncnc(Nc3ccc4c(cnn4Cc4ccccc4)c3)c12
CCc1c(NC(=O)OC[C@H]2COCCN2)cn2ncnc(Nc3ccc4c(cnn4Cc4ccccc4)c3)c12
CCc1c(NC(=O)O[C@H]2CCCNC2)cn2ncnc(Nc3ccc4c(cnn4Cc4ccccc4)c3)c12
CCc1c(NC(=O)OC[C@@H]2CCN(C)C2)cn2ncnc(Nc3ccc4c(cnn4Cc4ccccc4)c3)c12
CCc1c(NC(=O)OC[C@H]2CNCCO2)cn2ncnc(Nc3ccc4c(cnn4Cc4ccccc4)c3)c12
CCc1c(NC(=O)OC[C@@H]2COCCN2)cn2ncnc(Nc3ccc4c(cnn4Cc4ccsc4)c3)c12
Cc1c(NC(=O)O[C@H]2CCCNC2)cn2ncnc(Nc3ccc4c(cnn4Cc4cccc(F)c4)c3)c12
CCc1c(NC(=O)O[C@H]2CC[C@@H](N)CC2)cn2ncnc(Nc3ccc4c(cnn4Cc4ccccc4)c3)c12
CCc1c(NC(=O)OCCCN2CCC[C@H](O)C2)cn2ncnc(Nc3ccc4c(cnn4Cc4ccccc4)c3)c12
Cc1c(NC(=O)O[C@H]2CC[C@@H](N)CC2)cn2ncnc(Nc3ccc4c(cnn4Cc4cccc(F)c4)c3)c12
Cc1c(NC(=O)OC[C@H](C)N)cn2ncnc(Nc3ccc4c(cnn4Cc4cccc(F)c4)c3)c12
CCc1c(NC(=O)OC[C@H]2CCCN2)cn2ncnc(Nc3ccc4c(cnn4Cc4ccccc4)c3)c12
CCc1c(NC(=O)OCCCN2CC[C@@H](O)C2)cn2ncnc(Nc3ccc4c(cnn4Cc4ccccc4)c3)c12
CCc1c(NC(=O)OC[C@@H]2COCCN2)cn2ncnc(Nc3ccc4c(cnn4Cc4cscn4)c3)c12
CCc1c(NC(=O)OCCCN2CC[C@H](O)C2)cn2ncnc(Nc3ccc4c(cnn4Cc4ccccc4)c3)c12
CCc1c(NC(=O)O[C@H]2CC[C@@H](CN)CC2)cn2ncnc(Nc3ccc4c(cnn4Cc4ccccc4)c3)c12
CCc1c(NC(=O)O[C@H]2CC[C@H](CN)CC2)cn2ncnc(Nc3ccc4c(cnn4Cc4ccccc4)c3)c12
CCc1c(NC(=O)OC[C@@H]2COCCN2)cn2ncnc(Nc3ccc4c(cnn4Cc4cccc(F)c4)c3)c12
CCc1c(NC(=O)O[C@@H]2CCCNC2)cn2ncnc(Nc3ccc4c(cnn4Cc4ccccc4)c3)c12
CCc1c(NC(=O)O[C@H]2CC[C@H](N)CC2)cn2ncnc(Nc3ccc4c(cnn4Cc4ccccc4)c3)c12
CCc1c(NC(=O)OC2CCN[C@H](CO)C2)cn2ncnc(Nc3ccc4c(cnn4Cc4ccccc4)c3)c12 (stereo not given in full)
CCc1c(NC(=O)OC[C@@H]2COCCN2)cn2ncnc(Nc3ccc4c(cnn4Cc4ccccc4)c3)c12
Cc1c(NC(=O)O[C@H]2CC[C@H](N)CC2)cn2ncnc(Nc3ccc4c(cnn4Cc4cccc(F)c4)c3)c12
CCc1c(NC(=O)OC[C@@H]2COCCN2)cn2ncnc(Nc3ccc4c(cnn4Cc4nccs4)c3)c12
CCc1c(NC(=O)OC[C@@H]2COCCN2)cn2ncnc(Nc3ccc4c(cnn4Cc4ccccn4)c3)c12
CCc1c(NC(=O)OC[C@@H]2CCNC2)cn2ncnc(Nc3ccc4c(cnn4Cc4ccccc4)c3)c12
CCc1c(NC(=O)OC[C@@H]2COCCN2)cn2ncnc(Nc3ccc4c(cnn4Cc4cnccn4)c3)c12
CCc1c(NC(=O)OC[C@H]2CCNC2)cn2ncnc(Nc3ccc4c(cnn4Cc4ccccc4)c3)c12
CCc1c(NC(=O)OC[C@@H]2CCCN2C)cn2ncnc(Nc3ccc4c(cnn4Cc4ccccc4)c3)c12
Cc1c(NC(=O)OC[C@@H](C)N)cn2ncnc(Nc3ccc4c(cnn4Cc4cccc(F)c4)c3)c12
Cc1c(NC(=O)O[C@H]2CC[C@@](C)(N)CC2)cn2ncnc(Nc3ccc4c(cnn4Cc4cccc(F)c4)c3)c12
CCc1c(NC(=O)OC[C@@H]2COCCN2)cn2ncnc(Nc3ccc4c(cnn4Cc4cccnc4)c3)c12
CCc1c(NC(=O)OC[C@@H]2CCCN2)cn2ncnc(Nc3ccc4c(cnn4Cc4ccccc4)c3)c12
